Numbered stars: 1 amine (or outer) side, 2 acyl side, 3 side chain; on linkers, the order of the positions; unused ones are H or OH. Bridge positions count the residues as written; N and C are the ends. Square brackets hold non-standard residues; d marks the D form. Peptide text beside a SMILES is read from it. * marks the point of attachment. hPhe(3,5-F2-4-CF3) = N[C@@H](CCc1cc(F)c(C(F)(F)F)c(F)c1)C(=O)O; hPhe(3-Cl-4-CF3) = N[C@@H](CCc1ccc(C(F)(F)F)c(Cl)c1)C(=O)O; NMePhe(4-CF3) = CN[C@@H](Cc1ccc(C(F)(F)F)cc1)C(=O)O; Thiomorpholino(1,1-dioxo) = O=S1(=O)CCN(*)CC1; 3Oxa8azabicyclo(3.2.1)octane = C1CC2COCC1N2*; NMeAbu(4,4,4-F3) = CN[C@@H](CC(F)(F)F)C(=O)O; X109 = O=C([C@H](Cc1cccc(I)c1F)N[*:1])[*:2]; X128 = O=C([C@H](Cc1cccc(F)c1F)N[*:1])[*:2]; X135 = O=C([C@H](Cc1cc(F)ccc1F)N[*:1])[*:2]; NMeGly(cPent) = CN[C@H](C(=O)O)C1CCCC1; Phe(3-I) = N[C@@H](Cc1cccc(I)c1)C(=O)O; Pro(4,4-F2) = O=C(O)[C@@H]1CC(F)(F)CN1; NMeY = CN[C@@H](Cc1ccc(O)cc1)C(=O)O; NMeCha = CN[C@@H](CC1CCCCC1)C(=O)O; Hyp = O=C(O)[C@@H]1C[C@@H](O)CN1; NMeChg = CN[C@H](C(=O)O)C1CCCCC1; NMeI = CC[C@H](C)[C@H](NC)C(=O)O; NMeD = CN[C@@H](CC(=O)O)C(=O)O; NMeL = CN[C@@H](CC(C)C)C(=O)O; Oxazolidin(3-yl) = C1CN(*)CO1; NMeAbu = CC[C@H](NC)C(=O)O; Morpholide = C1CN(*)CCO1; NMeA = CN[C@@H](C)C(=O)O; NMeAib = CNC(C)(C)C(=O)O; Nle = CCCC[C@H](N)C(=O)O; Piperidide = C1CCN(*)CC1; Pra = C#CC[C@H](N)C(=O)O; Pyrrolidide = C1CCN(*)C1; Ac5c = NC1(C(=O)O)CCCC1; Aze = O=C(O)[C@@H]1CCN1; Sar = CNCC(=O)O Where only a bound is given, the exact number is not on record here.

For the test, the system named is Human pancreatic cancer cell line AsPC-1 (G12D mutation Kras). Description: AsPC-1 cell growth inhibition (AsPC-1 CGI). Type of test: cell-based. To be noted: read-out: AsPC-1 cell growth inhibition, 50% growth inhibitory concentration (IC50 value); 96 hours, CellTiter-Glo, values classified in ranges.
Description: Test compounds were serially dilated with dimethyl sulfoxide, and 200 nL was then dispensed to a U-bottom 96-well plate using Labcyte Echo. […] The cell suspension was dispensed to a. plate containing a test compound at 100 μL per well and incubated at 37° C. in a 5% carbon dioxide gas incubator. 96 hours later, 80 μL of CellTiter-Glo (Promega) was added to each well and fluorescence was measured.
Take `C#CC[C@@H]1NC(=O)[C@H](Cc2cccc(I)c2)NC(=O)CN(C)C(=O)[C@H](Cc2ccc(OC)cc2)N(C)C(=O)[C@@H]2CCN2C(=O)CN(C)C(=O)[C@H]([C@@H](C)CC)NC(=O)[C@H](CC(C)C)N(C)C(=O)C[C@@H](C(=O)N2CCCCC2)N(C)C(=O)[C@H](CC(C)C)NC(=O)C(C)(C)N(C)C1=O` [Compound 1246] ([NMeL]I[Sar][Aze][NMeY](Me)[Sar][Phe(3-I)][Pra][NMeAib]L[NMeD]-Piperidide; lactam N-11): the IC50 is > 500 nM.

Turning to `CC[C@H](C)[C@@H]1NC(=O)[C@H](CC(C)C)N(C)C(=O)C[C@@H](C(=O)N2CCOC2)NC(=O)[C@H]([C@@H](C)CC)N(C)C(=O)C2(CCCC2)NC(=O)[C@@H]2CCCN2C(=O)[C@H](CCc2ccc(C(F)(F)F)c(Cl)c2)NC(=O)CN(C)C(=O)[C@H](CC2CCCCC2)N(C)C(=O)CN(C)C(=O)CN(C)C1=O` [Compound 1247] ([NMeL]I[Sar][Sar][NMeCha][Sar][hPhe(3-Cl-4-CF3)]P[Ac5c][NMeI]D-{Oxazolidin(3-yl)}; lactam N-11), the IC50 is > 500 nM.

For the compound `CCCC[C@@H]1NC(=O)[C@H](Cc2cccc(I)c2F)NC(=O)CN(C)C(=O)[C@H](Cc2ccc(OC)cc2)N(C)C(=O)[C@@H]2CCN2C(=O)[C@H](C)N(C)C(=O)[C@H]([C@@H](C)CC)NC(=O)[C@H](CC)N(C)C(=O)C[C@@H](C(=O)N2CCCCC2)N(C)C(=O)[C@H](CC(C)C)NC(=O)C(C)(C)N(C)C1=O` [Compound 1249] ([NMeAbu]I[NMeA][Aze][NMeY](Me)[Sar][X109][Nle][NMeAib]L[NMeD]-Piperidide; lactam N-11), the IC50 was > 500 nM.

As to `CCCC[C@@H]1NC(=O)[C@H](Cc2cccc(F)c2F)NC(=O)CN(C)C(=O)[C@H](Cc2ccc(OC)cc2)N(C)C(=O)[C@@H]2CCN2C(=O)[C@H](C)N(C)C(=O)[C@H]([C@@H](C)CC)NC(=O)[C@H](CC)N(C)C(=O)C[C@@H](C(=O)N2CCCCC2)N(C)C(=O)[C@H](CC(C)C)NC(=O)C(C)(C)N(C)C1=O` [Compound 1256] ([NMeAbu]I[NMeA][Aze][NMeY](Me)[Sar][X128][Nle][NMeAib]L[NMeD]-Piperidide; lactam N-11), the IC50 is > 500 nM.

In the case of `CC[C@H](C)[C@@H]1NC(=O)[C@H](CC(C)C)N(C)C(=O)C[C@@H](C(=O)N2C3CCC2COC3)NC(=O)[C@H]([C@@H](C)CC)N(C)C(=O)C2(CCCC2)NC(=O)[C@@H]2CCCN2C(=O)[C@H](CCc2ccc(C(F)(F)F)c(Cl)c2)NC(=O)CN(C)C(=O)[C@H](CC2CCCCC2)N(C)C(=O)CN(C)C(=O)CN(C)C1=O` [Compound 1257] ([NMeL]I[Sar][Sar][NMeCha][Sar][hPhe(3-Cl-4-CF3)]P[Ac5c][NMeI]D-{3Oxa8azabicyclo(3.2.1)octane}; lactam N-11), the IC50 is > 500 nM.

In the case of `C#CC[C@@H]1NC(=O)[C@H](Cc2cccc(I)c2)NC(=O)CN(C)C(=O)[C@H](Cc2ccc(C(F)(F)F)cc2)N(C)C(=O)[C@@H]2CCN2C(=O)[C@H](C)N(C)C(=O)[C@H]([C@@H](C)CC)NC(=O)[C@H](CC(C)C)N(C)C(=O)C[C@@H](C(=O)N2CCCCC2)N(C)C(=O)[C@H](CC(C)C)NC(=O)C(C)(C)N(C)C1=O` [Compound 1258] ([NMeL]I[NMeA][Aze][NMePhe(4-CF3)][Sar][Phe(3-I)][Pra][NMeAib]L[NMeD]-Piperidide; lactam N-11), the IC50 was > 500 nM.

Turning to `CC[C@H](C)[C@@H]1NC(=O)[C@H](CC(F)(F)F)N(C)C(=O)C[C@@H](C(=O)N2CCOCC2)N(C)C(=O)[C@H](C2CCCCC2)N(C)C(=O)C2(CCCC2)NC(=O)[C@@H]2CC(F)(F)CN2C(=O)[C@H](CCc2cc(F)c(C(F)(F)F)c(F)c2)NC(=O)CN(C)C(=O)[C@H](Cc2ccc(C(F)(F)F)cc2)N(C)C(=O)CN(C)C(=O)CN(C)C1=O` [Compound 1260] ([NMeAbu(4,4,4-F3)]I[Sar][Sar][NMePhe(4-CF3)][Sar][hPhe(3,5-F2-4-CF3)][Pro(4,4-F2)][Ac5c][NMeChg][NMeD]-Morpholide; lactam N-11), the IC50 is ≤ 20 nM.

With `CCO[C@@H]1C[C@H]2C(=O)NC3(CCCC3)C(=O)N(C)[C@@H]([C@@H](C)CC)C(=O)N(C)[C@H](C(=O)N3CCOCC3)CC(=O)N(C)[C@@H](CC(C)C)C(=O)N[C@@H]([C@@H](C)CC)C(=O)N(C)[C@@H](C)C(=O)N3CC[C@H]3C(=O)N(C)[C@@H](Cc3ccc(C(F)(F)F)cc3)C(=O)N(C)CC(=O)N[C@@H](CCc3cc(F)c(C(F)(F)F)c(F)c3)C(=O)N2C1` [Compound 1261] ([NMeL]I[NMeA][Aze][NMePhe(4-CF3)][Sar][hPhe(3,5-F2-4-CF3)][Hyp](Et)[Ac5c][NMeI][NMeD]-Morpholide; lactam N-11), the IC50 was ≤ 20 nM.

In the case of `CC[C@H](C)[C@@H]1NC(=O)[C@H](CC(C)C)N(C)C(=O)C[C@@H](C(=O)N2CCS(=O)(=O)CC2)N(C)C(=O)[C@H](C2CCCCC2)N(C)C(=O)C2(CCCC2)NC(=O)[C@@H]2CCCN2C(=O)[C@H](CCc2ccc(C(F)(F)F)c(Cl)c2)NC(=O)CN(C)C(=O)[C@H](CC2CCCCC2)N(C)C(=O)CN(C)C(=O)CN(C)C1=O` [Compound 1263] ([NMeL]I[Sar][Sar][NMeCha][Sar][hPhe(3-Cl-4-CF3)]P[Ac5c][NMeChg][NMeD]-{Thiomorpholino(1,1-dioxo)}; lactam N-11), the IC50 was > 500 nM.

With `CCCC[C@@H]1NC(=O)[C@H](Cc2cc(F)ccc2F)NC(=O)CN(C)C(=O)[C@H](Cc2ccc(OC)cc2)N(C)C(=O)[C@@H]2CCN2C(=O)[C@H](C)N(C)C(=O)[C@H]([C@@H](C)CC)NC(=O)[C@H](CC)N(C)C(=O)C[C@@H](C(=O)N2CCCCC2)N(C)C(=O)[C@H](CC(C)C)NC(=O)C(C)(C)N(C)C1=O` [Compound 1268] ([NMeAbu]I[NMeA][Aze][NMeY](Me)[Sar][X135][Nle][NMeAib]L[NMeD]-Piperidide; lactam N-11), the IC50 was > 500 nM.

For `CC[C@H](C)[C@@H]1NC(=O)[C@H](CC(C)C)N(C)C(=O)C[C@@H](C(=O)N2CCCC2)N(C)C(=O)[C@H](C2CCCC2)N(C)C(=O)C2(CCCC2)NC(=O)[C@@H]2CC(F)(F)CN2C(=O)[C@H](CCc2ccc(C(F)(F)F)c(Cl)c2)NC(=O)CN(C)C(=O)[C@H](CC2CCCCC2)N(C)C(=O)CN(C)C(=O)CN(C)C1=O` [Compound 1270] ([NMeL]I[Sar][Sar][NMeCha][Sar][hPhe(3-Cl-4-CF3)][Pro(4,4-F2)][Ac5c][NMeGly(cPent)][NMeD]-Pyrrolidide; lactam N-11), the IC50 was ≤ 20 nM.

Consider `CC[C@H](C)[C@@H]1NC(=O)[C@H](CC(C)C)N(C)C(=O)C[C@@H](C(=O)N2CCCCC2)NC(=O)[C@H](C2CCCCC2)N(C)C(=O)C2(CCCC2)NC(=O)[C@@H]2CCCN2C(=O)[C@H](CCc2ccc(C(F)(F)F)c(Cl)c2)NC(=O)CN(C)C(=O)[C@H](CC2CCCCC2)N(C)C(=O)CN(C)C(=O)CN(C)C1=O` [Compound 1274] ([NMeL]I[Sar][Sar][NMeCha][Sar][hPhe(3-Cl-4-CF3)]P[Ac5c][NMeChg]D-Piperidide; lactam N-11), for which the IC50 is > 500 nM.

Take `CC[C@H](C)[C@@H]1NC(=O)[C@H](CC(C)C)N(C)C(=O)C[C@@H](C(=O)N2CCOCC2)NC(=O)[C@H]([C@@H](C)CC)N(C)C(=O)C2(CCCC2)NC(=O)[C@@H]2CCCN2C(=O)[C@H](CCc2ccc(C(F)(F)F)c(Cl)c2)NC(=O)CN(C)C(=O)[C@H](CC2CCCCC2)N(C)C(=O)CN(C)C(=O)CN(C)C1=O` [Compound 1277] ([NMeL]I[Sar][Sar][NMeCha][Sar][hPhe(3-Cl-4-CF3)]P[Ac5c][NMeI]D-Morpholide; lactam N-11): the IC50 is > 500 nM.

These data come from patent US20240148821A1, “PHARMACEUTICAL USE OF CYCLIC PEPTIDE COMPOUND” (CHUGAI SEIYAKU KABUSHIKI KAISHA, priority 2021, published 2024).
